Values quoted from earlier work, collected in publication PMC11084461, “The First Reciprocal Activities of Chiral Peptide Pharmaceuticals: Thymogen and Thymodepressin, as Examples” (International Journal of Molecular Sciences, 2024).
Read-outs that look alike come from different tables or passages of the source.

Experiments:
[1] = system: hematopoietic progenitor cells; parameters: method as in ref 74 = [74]; 74. Semina O.V. Semenets T.N. Deigin V.I. Korotkov A.M. Vinogradova Y.E. Poverenny A.M. Stimulation with Thymogen (EW), a dipeptide that has immunoprotective properties to restore hematopoiesis in irr; details: mice; for Protective effect on hematopoietic progenitor cells after Cytosar treatment: administered two days before Cytosar injection
[2] = system: autoantibodies; parameters: method as in ref 97 = [97]; 97. Krasilshchikova M. Leonov V. Zatsepina O. Deigin V. Immunosuppressor studies of Thymodepressin in the experimental autoimmune model Immunology 2009 5 290 294; details: SJL/J mouse
[3] = system: leukocytes; parameters: method as in ref 75 = [75]; 75. Vinogradova Y.E. Deigin V.I. Korotkov A.M. Semina O.V. Sements T.N. Poverenny A.M. Use of Thymogen for the treatment of patients with diseases of the blood system. The influence of Thymogen on the; details: patients after polychemotherapy receiving Thymogen
[4] = system: thymocyte regeneration; parameters: method as in PMID 6971758; details: same conditions for all isomers
[5] = system: bone marrow cells; parameters: method as in PMID 16307056; details: mice irradiated 4 Gy, treated seven days after irradiation, read on day eight
[6] = system: mature T-lymphocyte; parameters: method as in PMID 12360601; details: indicated by changed CD25+ and CD69+ markers
[7] = system: colony-forming unit (CFU); parameters: method as in PMID 30927190; details: lethally irradiated mice, i/p on days 1, 2 and 3 after allogeneic bone marrow transplantation
[8] = system: hematopoietic stem cell progenitors; parameters: method as in ref 82 = [82]; 82. Vladimirskaya E.B. Osipova Y.E. Kaznacheev K.S. Ivanova K.A. Deigin V.I. Rumyantsev A.G. The effect of Thymodepressin on the proliferation of human hematopoietic progenitor cells Hematol. Transfus; details: in vitro in methylcellulose, MTT test; dose range from 1 µg/mL to 10 µg/mL
[9] = system: bone marrow; parameters: method as in ref 92 = [92]; 92. Dyadkin V.Y. Shamov B.A. The experimental application of Thymodepressin in patients with psoriasis Dermatology 2003 1 36; details: pre-treatment two days before irradiation; seven days after irradiation, persisted 14 observation days
[10] = system: psoriasis vulgaris; parameters: method as in PMID 15199399
[11] = system: CFU-C-8 cells; parameters: method as in PMID 19145362
[12] = experimental group (29 patients)

## Cyclosporine [reference compound]
[1]
  Protective effect on hematopoietic progenitor cells after Cytosar treatment: had no effect
[2]
  Effective dose, prophylactic regimen: 20 to 50 mg/kg
[2]; prophylactic regimen
  Dose at which statistically significant effect was achieved: 50 mg/kg

## L-Glu-L-Trp [Thymogen]
[3]
  Average leukocyte count compared to the group receiving protocol treatment: doubled
[4]
  Influence on thymocyte regeneration (restoring E-rosette-forming units): stimulating activity

## D-Glu(D-Trp) [Thymodepressin]
[5]
  Rate of dividing bone marrow cells: below that of the intact control
[6]
  Mature T-lymphocyte activation: suppression of mature T-lymphocyte activation
[7]
  Yield of colonies compared to the control animals: approximately four times
[1]
  Protective effect on hematopoietic progenitor cells after Cytosar treatment: completely protected
[1]; two days before Cytosar, after 3 h and up to seven days
  Number of CFU-S-8 colonies: restored the number of CFU-S-8 colonies to an intact level
[8]
  Cloning efficiency of hematopoietic stem cell progenitors: suppresses the cloning efficiency of all hematopoietic stem cell progenitors
[9]
  Bone marrow cell number (cellularity): restored to an intact level
[2]
  Dose of most effective immunosuppression, therapeutic regimen: 0.7 mg/kg
[2]; doses 0.14, 0.35 and 0.7 mg/kg
  Immunosuppressive effect, prophylactic regimen: pronounced immunosuppressive effect
  Immunosuppressive effect, therapeutic regimen: distinct immunosuppressive effect
[2]; prophylactic regimen
  Persistence of effect after the end of the drug administration: over ten weeks
[10]; [12]
  Clinical improvement: 13 patients
  Significant clinical improvement: 16 patients
[10]; experimental group (29 patients), 1st day of treatment, i/m 1 mL 0.1% solution
  PASI (Psoriasis Area and Severity Index): 26.8
[10]; experimental group, 21st day, three i/m courses of 1 mL 0.1% solution daily for five days
  PASI (Psoriasis Area and Severity Index): 8.6
[10]; experimental group, day 1 to day 21
  Decrease in the PASI index: 70%
[11]; experimental animal, after administration of the peptide
  Number of leucocytes in the blood: dose-dependent transient decrease
[11]; in vitro and in vivo
  Number of committed CFU-C-8 cells in the S-phase of the cell cycle: reducing the number of committed CFU-C-8 cells in the S-phase
[4]
  Influence on thymocyte regeneration (restoring E-rosette-forming units): effective inhibitors of thymocyte regeneration

## L-Glu–(L-Trp)-OH
[4]
  Influence on thymocyte regeneration (restoring E-rosette-forming units): stimulating activity

## D-Glu-D-Trp
[4]
  Influence on thymocyte regeneration (restoring E-rosette-forming units): effective inhibitors of thymocyte regeneration
